Laboratory results reported in patent US7067488B2, “Modified GLP-1 peptides with increased biological potency” (TheraTechnologies Inc., priority 2002, dated 2006).

Columns and labels:
[1] = system: CD-1 normal female mice; conditions: 1 μg dose ip, CD-1 mice
Procedure: An OGTT was done as described above. Plasma insulin levels were determined using a commercial RIA kit (Linco Research).

[2] = system: db/db mice; assay: OGTT in diabetic mice (db/db); assay type: in vivo; conditions: 5 μG/mouse ip
Procedure: An OGTT was conducted as described in Example 3. Peptides were injected intra-parentally (ip) at 5 μG/mouse doses.

[3] = system: RINm5F cells; assay: cAMP production in RINm5F cells; assay type: cell-based; conditions: Mean ± SD; for IC50: 40 minutes incubation with peptide, 0.5 mM IBMX
Procedure: RINm5F cells (ATCC # CRL-2058) were grown to confluence and used 4 days following confluency. Aqueous stock solutions (1 mM) of GLP-1, 5, 8, 16, and 17, also containing 0.1% BSA, were made prior to the assay. Cells were pre-incubated with 100 μl RPMI containing 0.5 mM IBMX for 10 minutes at 37° C. Diluted (10^−5 to 10^−11 M) peptides (100 μl) were added to the wells and incubated for 40 minutes. At the end of the incubation period, the supernatant was collected and assayed for cAMP using a radioimmunoassay kit (Diagnostic Product Corporation). Maximal responses (pmol/mg protein) and IC50 (nM) values were evaluated from the dose-response curves and data presented in Table 3.

[4] = system: Sprague-Dawley rats; assay: Intraperitoneal glucose tolerance test (IPGTT), plasma insulin levels in Sprague-Dawley rats; assay type: in vivo; conditions: 10 μg/rat iv
Procedure: Sprague-Dawley rats (300–350 g) were fasted overnight, and injected with 1 g/kg glucose (2 ml) (over 15–20 seconds), and blood glucose levels were determined at different times during a period of 3 hours using a portable glucometer. The drugs (10 μg/rat) were dissolved in saline and injected into the femoral vein 5 minutes before the injection of glucose. Thus 0 time represents blood glucose and insulin levels after drug administration but before glucose injection. Plasma insulin levels were determined using a radioimmunoassay kit (Linco). […] The insulinogenic index was calculated as delta insulin (pM)/delta glucose (mM).

[5] = cited from earlier work

Substance	accelerating glucose disposal compared to GLP-1 [2]	IC50 [3] [nM]	Maximal Response [3] [pmol/mg protein]	other results
[H7] 3-methoxyphenyl acetic acid GLP-1 (7–37) COOH [Compound 7]	performed better than GLP-1			effect on glucose disposal [1]: no effect on glucose disposal
[H7] Salicylic acid GLP-1 (7–37) COOH [Compound 8]	performed better than GLP-1	13.9 ± 15.6	25.1 ± 11.9	order of efficacy [4]: 15=5>7=GLP-1>8=vehicle
[H7] (1S, 2S) 2-ethylcyclopropyl acetic acid GLP-1 (7–37) COOH [Compound 15]	performed better than GLP-1			
GLP-1 (7–37) OH [reference compound]		6.4 ± 3.8	17.6 ± 5.1	half-life of circulating GLP-1 ([5]; Kreymann et al., 1987): about 4 minutes; metabolic clearance rate ([5]; active GLP-1 (Holst, 1994)): 12 to 13 min; plasma half-life ([5]; active GLP-1 (Holst, 1994)): < 5 min; order of efficacy [4]: 15=5>7=GLP-1>8=vehicle
[H7] Salicylic acid GLP-1 (7–37) CONH2 [Compound 17]		13.2 ± 5.2	21.9 ± 2.1	
[H7] 3-aminophenyl acetic acid GLP-1 (7–36) CONH2 [Compound 16]		10.2 ± 7.7	13.8 ± 3.6	
[H7] 3-aminophenyl acetic acid GLP-1 (7–37) COOH [Compound 5]		8.7 ± 9.8	20.0 ± 6.9	
